This note sets out measurements from ChEMBL document CHEMBL2363022, “Malaria Box Schistosomiasis Screening Data” (2013).

Assay type in all cases: functional
Design in all cases: scale not given here

The subject of test [1] is Schistosoma mansoni.
Test [2] concerns Schistosoma mansoni. This is another data set of the same source.
The test system of test [3] is Schistosoma mansoni. The source holds these as a separate data set.

Take `O=C(Nc1ccc(-c2nc3cc4ccccc4cc3[nH]2)cc1)c1cccc(Br)c1`: the Toxicity came out at 0 with Schistosoma mansoni [1], 0 in the test with Schistosoma mansoni [2] and 2 in the test on Schistosoma mansoni [3].
Take `CC(C)CCNCC(O)Cn1c2ccccc2c2ccccc21.Cl` (stereo not given): the Toxicity was determined as 4 in the test with Schistosoma mansoni [1], 2 with Schistosoma mansoni [2] and 4 with Schistosoma mansoni [3].
As for `CCOC(=O)c1c(C)n(-c2ccc(Cl)cc2)c2ccc(OC(=O)C=Cc3ccccc3)cc12`, the Toxicity with Schistosoma mansoni [1], with Schistosoma mansoni [2] and in the test with Schistosoma mansoni [3] was 0 in each case.
`O=[N+]([O-])c1ccc(C=NNc2nc3ccccc3[nH]2)cc1`: the Toxicity is 1 in the test on Schistosoma mansoni [1], 0 with Schistosoma mansoni [2] and 0 in the test with Schistosoma mansoni [3].
Consider `CCOC(=O)c1c[nH]c2c(CC)cccc2c1=O`, for which the Toxicity in the test on Schistosoma mansoni [1] is reported as 0; with Schistosoma mansoni [2] it was 0; in the test on Schistosoma mansoni [3], 3.
Take `COc1ccc(CN2CCCC(C(=O)c3ccc(C(F)(F)F)cc3)C2)c(O)c1` (stereo not given): the Toxicity in the test on Schistosoma mansoni [1], in the test with Schistosoma mansoni [2] and in the test with Schistosoma mansoni [3] was 0 each time.
Regarding `Br.CCn1c2c(c(=N)c3c1CCC3)CCCC2`, the Toxicity in the test with Schistosoma mansoni [1], in the test on Schistosoma mansoni [2] and in the test with Schistosoma mansoni [3] was 0 in each case.
For `O=C(Nc1ccc(C23CC4CC(CC(c5ccccc5)(C4)C2)C3)cc1)c1cccs1`, the Toxicity with Schistosoma mansoni [1], in the test with Schistosoma mansoni [2] and with Schistosoma mansoni [3] was 2 in each case.
Regarding `COc1cccc(C(=O)NC(c2ccc(C)cc2)c2cc(Cl)c3cccnc3c2O)c1` (stereo not given), the Toxicity in the test on Schistosoma mansoni [1] was found to be 4; with Schistosoma mansoni [2], 1; in the test on Schistosoma mansoni [3] it was 4.
Turning to `COc1cccc(Nc2nc(NCCO)c3ccccc3n2)c1.Cl`, the Toxicity with Schistosoma mansoni [1], in the test on Schistosoma mansoni [2] and in the test on Schistosoma mansoni [3] was 0 each time.
`COc1cc(-c2nc(-c3ccccc3)c(-c3ccccc3)[nH]2)cc(OC)c1O`: the Toxicity in the test with Schistosoma mansoni [1], with Schistosoma mansoni [2] and with Schistosoma mansoni [3] was 0 throughout.
As to `COc1ccc(C2NCCc3c2[nH]c2ccccc32)cc1CN1CCN(c2ccc(F)cc2)CC1.Cl` (stereo not given), the Toxicity turned out to be 4 with Schistosoma mansoni [1], 3 with Schistosoma mansoni [2] and 4 in the test with Schistosoma mansoni [3].
As for `OC(CNC1CCCCC1)Cn1c2ccccc2c2ccccc21` (stereo not given), the Toxicity in the test on Schistosoma mansoni [1], with Schistosoma mansoni [2] and in the test on Schistosoma mansoni [3] was 0 throughout.
As for `C=CCc1c(C)nc2ccccc2c1O`, the Toxicity in the test with Schistosoma mansoni [1], in the test on Schistosoma mansoni [2] and in the test on Schistosoma mansoni [3] was 0 throughout.
With `Cc1ccnc(NC(c2cccc(OCc3ccccc3)c2)c2ccc3cccnc3c2O)c1` (stereo not given), the Toxicity with Schistosoma mansoni [1] amounted to 4; with Schistosoma mansoni [2], 1; with Schistosoma mansoni [3], 4.
Take `c1ccc(-c2ccc(-c3nc4ccccc4[nH]3)cc2)cc1`: the Toxicity in the test with Schistosoma mansoni [1], in the test with Schistosoma mansoni [2] and in the test on Schistosoma mansoni [3] was 0 each time.
In the case of `CN1CCN(c2c3c(c(C#N)c4nc5ccccc5n24)CCC3)CC1`, the Toxicity in the test with Schistosoma mansoni [1], in the test on Schistosoma mansoni [2] and with Schistosoma mansoni [3] was 0 in each case.
With `COc1ccc(C2N(C)c3ccccc3N2C)cc1`, the Toxicity with Schistosoma mansoni [1], in the test on Schistosoma mansoni [2] and in the test with Schistosoma mansoni [3] was 0 throughout.
With `COc1cc(C(=O)Nc2nc3c(cc4c5c(cccc53)CC4)s2)cc(OC)c1OC`, the Toxicity in the test with Schistosoma mansoni [1], in the test on Schistosoma mansoni [2] and in the test on Schistosoma mansoni [3] was 0 throughout.
`CCCCCCOC(=O)C1=C(C)NC(=O)NC1c1ccccc1F` (stereo not given): the Toxicity in the test on Schistosoma mansoni [1], in the test with Schistosoma mansoni [2] and in the test with Schistosoma mansoni [3] was 0 throughout.
In the case of `COc1ccc(/C=C2/SC(=Nc3ccccc3)NC2=O)cc1`, the Toxicity with Schistosoma mansoni [1], in the test on Schistosoma mansoni [2] and in the test with Schistosoma mansoni [3] was 0 in each case.
Turning to `O=C(Nc1ccc(-c2nc3ccccc3[nH]2)cc1)c1ccc(Cl)c(Cl)c1`, the Toxicity with Schistosoma mansoni [1], in the test on Schistosoma mansoni [2] and with Schistosoma mansoni [3] was 0 in each case.
Consider `CC(=O)c1sc(NC(=O)Nc2ccc(C)cc2C)nc1C`, for which the Toxicity in the test with Schistosoma mansoni [1], in the test with Schistosoma mansoni [2] and with Schistosoma mansoni [3] was 0 in each case.
As for `Cc1cc(NCCN2CCCCC2)c2ccc3ccccc3c2n1`, the Toxicity in the test with Schistosoma mansoni [1], with Schistosoma mansoni [2] and with Schistosoma mansoni [3] was 4 each time.
Regarding `O=C1c2ccccc2-c2nnc(-c3ccc(Br)cc3)cc21`, the Toxicity with Schistosoma mansoni [1], in the test with Schistosoma mansoni [2] and with Schistosoma mansoni [3] was 0 in each case.
On to `CCOc1ccccc1CNC(=O)C1c2ccccc2C(=O)N(CC(C)C)C1c1cccs1` (stereo not given), for which the values for the Toxicity in the test on Schistosoma mansoni [1], in the test with Schistosoma mansoni [2] and with Schistosoma mansoni [3] were 0, 0 and 4, respectively.
On to `Cc1cc(Nc2cccc(F)c2)nc(NCc2ccccc2)n1`, for which the Toxicity in the test with Schistosoma mansoni [1] was determined as 0; in the test on Schistosoma mansoni [2], 2; in the test with Schistosoma mansoni [3], 0.
In the case of `CCCc1c(C)nc2ccc(Br)cc2c1O`, the Toxicity with Schistosoma mansoni [1], in the test on Schistosoma mansoni [2] and in the test on Schistosoma mansoni [3] was 0 throughout.
`CC1CC(C)CN(C(=O)c2ccc(Cl)cc2Cl)C1` (stereo not given): the Toxicity in the test with Schistosoma mansoni [1], with Schistosoma mansoni [2] and in the test on Schistosoma mansoni [3] was 0 in each case.
As for `CN1c2ccccc2N(C)C1c1ccc2c(c1)OCO2`, the Toxicity in the test with Schistosoma mansoni [1] worked out at 0; in the test on Schistosoma mansoni [2], 1; in the test with Schistosoma mansoni [3] it was 0.
As to `COc1ccc(-c2cn3c(C(=O)Nc4ccccc4Cl)c(-c4ccccc4)c4c3n2CCCC4)cc1`, the Toxicity in the test with Schistosoma mansoni [1], in the test with Schistosoma mansoni [2] and in the test on Schistosoma mansoni [3] was 0 in each case.
With `O=C(Nc1ccccc1O)c1ccc(Oc2cccc(C(=O)Nc3ccccc3O)c2)cc1`, the Toxicity in the test on Schistosoma mansoni [1] amounted to 2; in the test on Schistosoma mansoni [2], 0; in the test with Schistosoma mansoni [3], 2.
For `CC(Oc1ccc(NC(=O)c2cccs2)cc1)C(=O)c1ccc(Cl)cc1` (stereo not given), the Toxicity in the test on Schistosoma mansoni [1], in the test on Schistosoma mansoni [2] and with Schistosoma mansoni [3] was 0 throughout.
In the case of `COc1cccc(Cn2c(Oc3ccccc3)nc3c2c(=O)n(C)c(=O)n3C)c1`, the Toxicity with Schistosoma mansoni [1], in the test with Schistosoma mansoni [2] and with Schistosoma mansoni [3] was 0 in each case.
As to `COc1ccc(CCn2c(=N)c(C(=O)NCc3cccnc3)cc3c(=O)n4cccc(C)c4nc32)cc1`, the values for the Toxicity in the test on Schistosoma mansoni [1], in the test on Schistosoma mansoni [2] and with Schistosoma mansoni [3] were 0, 2 and 4, respectively.
Regarding `CCCCc1c(C)nc2c(OC)cccc2c1O`, the Toxicity in the test with Schistosoma mansoni [1], in the test on Schistosoma mansoni [2] and in the test with Schistosoma mansoni [3] was 0 in each case.
On to `CCOc1cc(CNC(C)C(O)c2ccccc2)cc(Cl)c1OCC` (stereo not given), for which the Toxicity in the test with Schistosoma mansoni [1] turned out to be 0; in the test with Schistosoma mansoni [2] it was 0; in the test with Schistosoma mansoni [3], 1.
As to `Oc1c(C(Nc2ccccn2)c2cccc(Oc3ccccc3)c2)ccc2cccnc12` (stereo not given), the Toxicity is on record as 4 in the test with Schistosoma mansoni [1], 0 in the test on Schistosoma mansoni [2] and 4 in the test on Schistosoma mansoni [3].
Consider `O=C(Nc1ccc(N2CCN(Cc3ccccc3)CC2)cc1)c1cccs1.O=C(O)C(F)(F)F`, for which the Toxicity in the test with Schistosoma mansoni [1], with Schistosoma mansoni [2] and in the test on Schistosoma mansoni [3] was 0 in each case.
On to `CCOC(=O)c1ccc2nc(-c3ccccc3)cc(O)c2c1`, for which the Toxicity came to 0 in the test on Schistosoma mansoni [1], 0 with Schistosoma mansoni [2] and 4 in the test on Schistosoma mansoni [3].
